The structures appear in SMILES notation.

For the assay, the system named is salivary bacteria. Put plainly: Hydrogen sulfide production by salivary bacteria in pooled saliva mixed with L-cysteine, headspace GC with sulfur detector. The assay is classed as cell-based, human. As to conditions: Example 2, FIG. 2; menthol alone at 4 mg/ml as compared to 2 mg/ml. The method, then:
• 1. About 10-20 ml of saliva was obtained from human subjects and mixed together prior to use. • 2. L-cysteine was dissolved in deionized (D.I.) water to produce 0.5% of cysteine solution. • 3. About 2.5 ml of pooled saliva was mixed with 2.5 ml of cysteine solution in a 20 ml headspace vial. • 4. The amount of hydrogen sulfide generated by salivary bacteria was analyzed by a gas chromatography (GC) equipped with a sulfur detector. Pooled saliva (50% dilution) and L-cysteine (0.25% in D.I. water) were used as the negative controls.
• 1. For evaluation of the headspace concentration of volatile sulfur compounds (VSCs), a gas chromatograph (GC) equipped with a sulfur chemiluminescence detector (SCD) was used. • 2. Each run was completed within 10 minutes. • 3. The level of H2S was analyzed by the GC-SCD by direct injection of 0.25 ml of headspace volume with an automated sampler.
Levels of H2S concentrations [μg/mL] were measured by gas […]. Licorice extract powder (Glycyrrhiza glabra) and menthol were each evaluated individually and then in combination. Saliva with cysteine served as a control reference. Licorice extract powder was sampled individually at 10 mg/ml and 20 mg/ml in a saliva-cysteine mixture. Menthol at 2 mg/ml was sampled individually. Three combinations of licorice and menthol were sampled, varying the amount of licorice extract.

`CC1CCC(C(C)C)C(O)C1` (stereo not shown) [menthol]: the “H2S production (peak gas chromatography area)” value is given as “slight decrease of H2S production in later time points”.

The values above are taken from patent publication US20200306173A1, “LICORICE EXTRACT SYNERGY WITH MENTHOL FOR BREATH FRESHENING IN A CONFECTIONARY PRODUCT” (WM. WRIGLEY JR. COMPANY, priority 2017, published 2020).
